Data from PubChem BioAssay (NCI).
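At the GI50, growth is halved. TGI: concentration producing complete growth inhibition.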

How the values were obtained:
Test in all cases: growth of human tumour cells (NCI), 384-well format
786-0 renal = tested on: 786-0 renal
A498 renal = tested on: A498 renal
A549 NSCLC = tested on: A549 NSCLC
BT-549 breast = tested on: BT-549 breast
CAKI-1 renal = tested on: CAKI-1 renal
CCRF-CEM leukemia = tested on: CCRF-CEM leukemia
COLO 205 colon = tested on: COLO 205 colon
DU-145 prostate = tested on: DU-145 prostate
EKVX NSCLC = tested on: EKVX NSCLC
HCC-2998 colon = tested on: HCC-2998 colon
HCT-116 colon = tested on: HCT-116 colon
HCT-15 colon = tested on: HCT-15 colon
HL-60(TB) leukemia = tested on: HL-60(TB) leukemia
HOP-62 NSCLC = tested on: HOP-62 NSCLC
HOP-92 NSCLC = tested on: HOP-92 NSCLC
HS 578T breast = tested on: HS 578T breast
HT29 colon = tested on: HT29 colon
IGROV1 ovarian = tested on: IGROV1 ovarian
K-562 leukemia = tested on: K-562 leukemia
KM12 colon = tested on: KM12 colon
LOX IMVI melanoma = tested on: LOX IMVI melanoma
M14 melanoma = tested on: M14 melanoma
MALME-3M melanoma = tested on: MALME-3M melanoma
MCF7 breast = tested on: MCF7 breast
MDA-MB-231 breast = tested on: MDA-MB-231 breast
MDA-MB-435 melanoma = tested on: MDA-MB-435 melanoma
MDA-MB-468 breast = tested on: MDA-MB-468 breast
MOLT-4 leukemia = tested on: MOLT-4 leukemia
NCI-H226 lung = tested on: NCI-H226 lung
NCI-H23 lung = tested on: NCI-H23 lung
NCI-H322M lung = tested on: NCI-H322M lung
NCI-H460 NSCLC = tested on: NCI-H460 NSCLC
NCI-H522 lung = tested on: NCI-H522 lung
NCI/ADR-RES ovarian = tested on: NCI/ADR-RES ovarian
OVCAR-3 ovarian = tested on: OVCAR-3 ovarian
OVCAR-4 ovarian = tested on: OVCAR-4 ovarian
OVCAR-5 ovarian = tested on: OVCAR-5 ovarian
OVCAR-8 ovarian = tested on: OVCAR-8 ovarian
PC-3 prostate = tested on: PC-3 prostate
RPMI-8226 leukemia = tested on: RPMI-8226 leukemia
RXF 393 renal = tested on: RXF 393 renal
SF-268 CNS = tested on: SF-268 CNS
SF-295 CNS = tested on: SF-295 CNS
SF-539 CNS = tested on: SF-539 CNS
SK-MEL-2 melanoma = tested on: SK-MEL-2 melanoma
SK-MEL-28 melanoma = tested on: SK-MEL-28 melanoma
SK-MEL-5 melanoma = tested on: SK-MEL-5 melanoma
SK-OV-3 ovarian = tested on: SK-OV-3 ovarian
SN12C renal = tested on: SN12C renal
SNB-19 CNS = tested on: SNB-19 CNS
SNB-75 CNS = tested on: SNB-75 CNS
SR leukemia = tested on: SR leukemia
SW-620 colon = tested on: SW-620 colon
T-47D breast = tested on: T-47D breast
TK-10 renal = tested on: TK-10 renal
U251 glioblastoma = tested on: U251 glioblastoma
UACC-257 melanoma = tested on: UACC-257 melanoma
UACC-62 melanoma = tested on: UACC-62 melanoma
UO-31 renal = tested on: UO-31 renal

Work on `CO[C@@H](C)Cn1c(=O)n(C)c2cnc3ccc(-c4cncc(C(C)(C)O)c4)cc3c21` yielded a GI50 ([…]-0 renal) of 133 nM, a TGI (786-0 renal) of 4550 nM and a GI50 (A498 renal) of 33 nM. The TGI (A498 renal) was 374 nM, the GI50 (A549 NSCLC) was 70.7 nM and the TGI (A549 NSCLC) was 1180 nM. It also gave a GI50 (BT-549 breast) of 96.2 nM, a TGI (BT-549 breast) of 503 nM and a GI50 (CAKI-1 renal) of 76.1 nM. The TGI (CAKI-1 renal) was 485 nM, the GI50 (CCRF-CEM leukemia) was 77.9 nM and the TGI (CCRF-CEM leukemia) was 707 nM. The GI50 (COLO 205 colon) was 186 nM, the TGI (COLO 205 colon) was 1480 nM and the GI50 (DU-145 prostate) was 84.6 nM. It also gave a TGI (DU-145 prostate) of 2690 nM, a GI50 (EKVX NSCLC) of 96.1 nM and a TGI (EKVX NSCLC) of 885 nM. The GI50 (HCC-2998 colon) was 188 nM, the TGI (HCC-2998 colon) was 2110 nM and the GI50 (HCT-116 colon) was 390 nM. The TGI (HCT-116 colon) was 1770 nM, the GI50 (HCT-15 colon) was 154 nM and the TGI (HCT-15 colon) was 12500 nM. It also gave a GI50 (HL-60(TB) leukemia) of 463 nM, a TGI (HL-60(TB) leukemia) of 1610 nM and a GI50 (HOP-62 NSCLC) of 109 nM. It also gave a TGI (HOP-62 NSCLC) of 1340 nM, a GI50 (HOP-92 NSCLC) of 150 nM and a TGI (HOP-92 NSCLC) of 702 nM. For the same molecule, the GI50 (HS 578T breast) was 35.7 nM, the TGI (HS 578T breast) was 217 nM and the GI50 (HT29 colon) was 226 nM. For the same molecule, the TGI (HT29 colon) was 11100 nM, the GI50 (IGROV1 ovarian) was 35 nM and the TGI (IGROV1 ovarian) was 173 nM. The GI50 (K-562 leukemia) was 162 nM, the TGI (K-562 leukemia) was 11800 nM and the GI50 (KM12 colon) was 136 nM. The TGI (KM12 colon) was 12900 nM, the GI50 (LOX IMVI melanoma) was 78.2 nM and the TGI (LOX IMVI melanoma) was 918 nM. The GI50 (M14 melanoma) was 151 nM, the TGI (M14 melanoma) was 1850 nM and the GI50 (MALME-3M melanoma) was 62.6 nM. It also gave a TGI (MALME-3M melanoma) of 327 nM, a GI50 (MCF7 breast) of 71.1 nM and a TGI (MCF7 breast) of 1670 nM. The GI50 (MDA-MB-231 breast) was 57.1 nM, the TGI (MDA-MB-231 breast) was 20600 nM and the GI50 (MDA-MB-435 melanoma) was 194 nM. The TGI (MDA-MB-435 melanoma) was 2360 nM, the GI50 (MDA-MB-468 breast) was 165 nM and the TGI (MDA-MB-468 breast) was 574 nM. The GI50 (MOLT-4 leukemia) was 81.2 nM, the TGI (MOLT-4 leukemia) was 299 nM and the GI50 (NCI-H226 lung) was 109 nM. The TGI (NCI-H226 lung) was 667 nM, the GI50 (NCI-H23 lung) was 319 nM and the TGI (NCI-H23 lung) was 2600 nM. It also gave a GI50 (NCI-H322M lung) of 139 nM, a TGI (NCI-H322M lung) of 2300 nM and a GI50 (NCI-H460 NSCLC) of 45.1 nM. It also gave a TGI (NCI-H460 NSCLC) of 1570 nM, a GI50 (NCI-H522 lung) of 104 nM and a TGI (NCI-H522 lung) of 1630 nM. The GI50 (NCI/ADR-RES ovarian) was 2150 nM, the TGI (NCI/ADR-RES ovarian) was 15400 nM and the GI50 (OVCAR-3 ovarian) was 84.6 nM. For the same molecule, the TGI (OVCAR-3 ovarian) was 894 nM, the GI50 (OVCAR-4 ovarian) was 126 nM and the TGI (OVCAR-4 ovarian) was 722 nM. The GI50 (OVCAR-5 ovarian) was 206 nM, the TGI (OVCAR-5 ovarian) was 1690 nM and the GI50 (OVCAR-8 ovarian) was 86.8 nM. It also gave a TGI (OVCAR-8 ovarian) of 11200 nM, a GI50 (PC-3 prostate) of 84.2 nM and a TGI (PC-3 prostate) of 740 nM. It also gave a GI50 (RPMI-8226 leukemia) of 28.2 nM, a TGI (RPMI-8226 leukemia) of 78.8 nM and a GI50 (RXF 393 renal) of 54.6 nM. For the same molecule, the TGI (RXF 393 renal) was 1370 nM, the GI50 (SF-268 CNS) was 293 nM and the TGI (SF-268 CNS) was 1770 nM. For the same molecule, the GI50 (SF-295 CNS) was 57 nM, the TGI (SF-295 CNS) was 413 nM and the GI50 (SF-539 CNS) was 141 nM. For the same molecule, the TGI (SF-539 CNS) was 1970 nM, the GI50 (SK-MEL-2 melanoma) was 243 nM and the TGI (SK-MEL-2 melanoma) was 592 nM. For the same molecule, the GI50 (SK-MEL-28 melanoma) was 221 nM, the TGI (SK-MEL-28 melanoma) was 3480 nM and the GI50 (SK-MEL-5 melanoma) was 157 nM. It also gave a TGI (SK-MEL-5 melanoma) of 463 nM, a GI50 (SK-OV-3 ovarian) of 88.4 nM and a TGI (SK-OV-3 ovarian) of 1010 nM. For the same molecule, the GI50 (SN12C renal) was 84.9 nM, the TGI (SN12C renal) was 3570 nM and the GI50 (SNB-19 CNS) was 334 nM. For the same molecule, the TGI (SNB-19 CNS) was 12600 nM, the GI50 (SNB-75 CNS) was 44 nM and the TGI (SNB-75 CNS) was 502 nM. For the same molecule, the GI50 (SR leukemia) was 20.2 nM, the TGI (SR leukemia) was 55 nM and the GI50 (SW-620 colon) was 197 nM. It also gave a TGI (SW-620 colon) of 1360 nM, a GI50 (T-47D breast) of 77.1 nM and a TGI (T-47D breast) of 406 nM. The GI50 (TK-10 renal) was 220 nM, the TGI (TK-10 renal) was 907 nM and the GI50 (U251 glioblastoma) was 221 nM. The TGI (U251 glioblastoma) was 3460 nM, the GI50 (UACC-257 melanoma) was 429 nM and the TGI (UACC-257 melanoma) was 2700 nM. The GI50 (UACC-62 melanoma) was 102 nM, the TGI (UACC-62 melanoma) was 719 nM and the GI50 (UO-31 renal) was 122 nM. For the same molecule, the TGI (UO-31 renal) was 6310 nM.
